Experimental data from patent US20220242846A1, “ISOINDOLINONE COMPOUNDS” (Monte Rosa Therapeutics AG, priority 2019, published 2022).

Target: T1, Full length wild-type cereblon CRBN (Homo sapiens, UniProt Q96SW2)
T1 construct: Full length wild-type cereblon CRBN (80.0 nM, 10 μL) was incubated in assay buffer
Test: Fluorescence polarization (FP) assay indicating cereblon binding
Conditions: CRBN 80.0 nM, fluorescent probe 5 nM, FP measured after 12 hours; read-out: rFP IC50
In short: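 Full-length wild-type human CRBN (80.0 nM) preincubated 30 min at room temperature with compound (12-point curve, 300-0.937 or 3000-9.3 nM) in HEPES pH 8.0, NaCl, TCEP, Tween 20. Thalidomide-based Cy5-type probe then added at 5 nM final; FP read after 12 h (ex 590, em 675 nm), normalized to DMSO, IC50 derived.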

T1 sequence (Q96SW2 whole entry): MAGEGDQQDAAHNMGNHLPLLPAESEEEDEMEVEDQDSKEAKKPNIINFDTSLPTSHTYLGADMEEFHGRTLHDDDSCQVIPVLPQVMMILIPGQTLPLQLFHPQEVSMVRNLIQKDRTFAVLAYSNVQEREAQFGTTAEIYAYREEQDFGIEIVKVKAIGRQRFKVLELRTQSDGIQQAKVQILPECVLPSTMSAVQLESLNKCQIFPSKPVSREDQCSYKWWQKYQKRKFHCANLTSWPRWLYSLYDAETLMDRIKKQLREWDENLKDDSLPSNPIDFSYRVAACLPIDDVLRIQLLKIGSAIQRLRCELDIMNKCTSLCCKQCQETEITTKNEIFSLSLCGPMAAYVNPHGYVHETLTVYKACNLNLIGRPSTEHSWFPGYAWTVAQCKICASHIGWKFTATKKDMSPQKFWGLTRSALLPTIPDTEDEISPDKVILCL

Point of comparison: `Cc1c(Cl)cccc1NC(=O)NCc1ccc2c(c1)C(=O)N(C1CCC(=O)NC1=O)C2` (stereo not drawn) [Compound 19], IC50 576 nM. Against it:
- N#Cc1ccc(NC(=O)NCc2ccc3c(c2)C(=O)N(C2CCC(=O)NC2=O)C3)cc1 (stereo not drawn) [Compound 74] — 2.9-fold lower, 196 nM
- Cc1ccc(F)c(NC(=O)NCc2ccc3c(c2)C(=O)N(C2CCC(=O)NC2=O)C3)c1 (stereo not drawn) [Compound 67] — 2-fold lower, 284 nM
- COc1ccccc1NC(=O)NCc1ccc2c(c1)C(=O)N(C1CCC(=O)NC1=O)C2 (stereo not drawn) [Compound 7] — 1.8-fold lower, 324 nM
- O=C1CCC(N2Cc3ccc(CNC(=O)Nc4ccc(Cl)cc4Cl)cc3C2=O)C(=O)N1 (stereo not drawn) [Compound 45] — within 1.5-fold, 472 nM
- Cc1ccc(NC(=O)NCc2ccc3c(c2)C(=O)N(C2CCC(=O)NC2=O)C3)cc1C (stereo not drawn) [Compound 68] — 2-fold lower, 290 nM
- CC(C)(C)NC(=O)NCc1ccc2c(c1)C(=O)N(C1CCC(=O)NC1=O)C2 (stereo not drawn) [Compound 10] — within 1.5-fold, 763 nM
- COc1ccc(NC(=O)NCc2ccc3c(c2)C(=O)N(C2CCC(=O)NC2=O)C3)cc1Cl (stereo not drawn) [Compound 59] — 1.5-fold lower, 373 nM
- Cc1cccc(C)c1NC(=O)NCc1ccc2c(c1)C(=O)N(C1CCC(=O)NC1=O)C2 (stereo not drawn) [Compound 25] — within 1.5-fold, 612 nM

Tested on: Human mammary epithelial cells (HMEC) engineered to express EGFP alone (non myc)
Test: 3D spheroid assay, non myc-HMEC (CellTiterGlo3D viability)
Assay type: cell-based
Conditions: 120 h, 3D spheroids, 5 days with compound, read-out: Code: EC50 value in the non myc-HMEC assay
Experimental: (§1) 3D Spheroid Experiments—HMEC
(§2) Human mammary epithelial cells (HMEC) were engineered to express either c-myc tagged with EGFP or EGFP alone (non myc) (analogous but distinct from Kessler J D et al, Science. 2012 Jan. 20; 335(6066):348-53. doi: 10.1126/science.1212728; Hsu T Y et al, Nature. 2015 Sep. 17; 525(7569):384-8. doi: 10.1038/nature14985). The engineered cells were seeded at 1000 (myc) or 4000 (non myc) cells/well in a 384 ultra-low attachment plate in a total volume of 40 µL, HMEC cell culture media (DMEM/F12+10% HI-FBS+15 mM HEPES+0.5 ug/ml Hydrocortisone+10 ug/ml Insulin+20 ng/ml EGF). Plates were spun at 1200 rpm for 5 minutes at room temperature to ensure that cells have gathered in the middle of the well and incubated at 37° C. for 48 hrs before firing with compounds. On Day 2 (48 h post seeding) cells were imaged (brightfield and EGFP fluorescence) using the Celigo imaging cytometer prior to firing compounds. For primary screens, compounds were added at three concentrations (1.25, 10 and 30 uM) in a volume of 120 nL using the ECHO acoustic dispenser and spun at 2000 rpm for 2 minutes at room temperature before incubating at 37° C. for 5 days. […] On Day 7, prior to measuring cell viability using CellTiterGlo3D, cells were imaged (brightfield and EGFP fluorescence) on the Celigo imaging cytometer. The CellTiterGlo3D reagent is added at 30uL/well and incubated at room temperature for 30mins After 30mins of incubation, luminescence readings were recorded using the Perkin Elmer EnVision reader.

`N#Cc1ccc(NC(=O)NCc2ccc3c(c2)C(=O)N(C2CCC(=O)NC2=O)C3)cc1` (stereo not drawn) [Compound 74] and `Cc1ccc(NC(=O)NCc2ccc3c(c2)C(=O)N(C2CCC(=O)NC2=O)C3)cc1C` (stereo not drawn) [Compound 68] cannot be ordered by EC50: greater than 10000 nM for the first, greater than 10000 nM for the second.

`Cc1ccc(F)c(NC(=O)NCc2ccc3c(c2)C(=O)N(C2CCC(=O)NC2=O)C3)c1` (stereo not drawn) [Compound 67] and `O=C1CCC(N2Cc3ccc(CNC(=O)Nc4ccc(Cl)cc4Cl)cc3C2=O)C(=O)N1` (stereo not drawn) [Compound 45] cannot be ordered by EC50: greater than 10000 nM for the first, greater than 10000 nM for the second.

`COc1ccccc1NC(=O)NCc1ccc2c(c1)C(=O)N(C1CCC(=O)NC1=O)C2` (stereo not drawn) [Compound 7] and `Cc1c(Cl)cccc1NC(=O)NCc1ccc2c(c1)C(=O)N(C1CCC(=O)NC1=O)C2` (stereo not drawn) [Compound 19] cannot be ordered by EC50: greater than 10000 nM for the first, greater than 10000 nM for the second.

`CC(C)(C)NC(=O)NCc1ccc2c(c1)C(=O)N(C1CCC(=O)NC1=O)C2` (stereo not drawn) [Compound 10] and `Cc1cccc(C)c1NC(=O)NCc1ccc2c(c1)C(=O)N(C1CCC(=O)NC1=O)C2` (stereo not drawn) [Compound 25] cannot be ordered by EC50: greater than 10000 nM for the first, greater than 10000 nM for the second.

With `COc1ccc(NC(=O)NCc2ccc3c(c2)C(=O)N(C2CCC(=O)NC2=O)C3)cc1Cl` (stereo not drawn) [Compound 59] the EC50 was greater than 10000 nM.

Target: GSPT1 (Homo sapiens, UniProt P15170+Q96SW2)
Sequence (P15170 whole entry): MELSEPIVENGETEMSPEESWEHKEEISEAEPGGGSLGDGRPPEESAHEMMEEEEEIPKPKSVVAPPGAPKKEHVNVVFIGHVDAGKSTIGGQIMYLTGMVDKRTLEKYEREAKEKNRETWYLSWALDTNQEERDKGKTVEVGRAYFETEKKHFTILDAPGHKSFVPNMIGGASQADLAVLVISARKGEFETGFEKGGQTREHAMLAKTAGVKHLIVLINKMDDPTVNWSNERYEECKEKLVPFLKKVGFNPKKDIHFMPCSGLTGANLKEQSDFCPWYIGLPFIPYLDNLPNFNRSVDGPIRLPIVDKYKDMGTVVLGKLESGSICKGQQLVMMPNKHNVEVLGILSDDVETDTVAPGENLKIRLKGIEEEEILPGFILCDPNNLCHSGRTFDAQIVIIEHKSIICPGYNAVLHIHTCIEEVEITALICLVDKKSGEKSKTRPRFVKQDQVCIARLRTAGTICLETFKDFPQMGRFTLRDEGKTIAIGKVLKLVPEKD
Sequence (Q96SW2 whole entry): as the sequence (Q96SW2 whole entry) above
Sequence (Q16531 2-1140 partner limits assumed): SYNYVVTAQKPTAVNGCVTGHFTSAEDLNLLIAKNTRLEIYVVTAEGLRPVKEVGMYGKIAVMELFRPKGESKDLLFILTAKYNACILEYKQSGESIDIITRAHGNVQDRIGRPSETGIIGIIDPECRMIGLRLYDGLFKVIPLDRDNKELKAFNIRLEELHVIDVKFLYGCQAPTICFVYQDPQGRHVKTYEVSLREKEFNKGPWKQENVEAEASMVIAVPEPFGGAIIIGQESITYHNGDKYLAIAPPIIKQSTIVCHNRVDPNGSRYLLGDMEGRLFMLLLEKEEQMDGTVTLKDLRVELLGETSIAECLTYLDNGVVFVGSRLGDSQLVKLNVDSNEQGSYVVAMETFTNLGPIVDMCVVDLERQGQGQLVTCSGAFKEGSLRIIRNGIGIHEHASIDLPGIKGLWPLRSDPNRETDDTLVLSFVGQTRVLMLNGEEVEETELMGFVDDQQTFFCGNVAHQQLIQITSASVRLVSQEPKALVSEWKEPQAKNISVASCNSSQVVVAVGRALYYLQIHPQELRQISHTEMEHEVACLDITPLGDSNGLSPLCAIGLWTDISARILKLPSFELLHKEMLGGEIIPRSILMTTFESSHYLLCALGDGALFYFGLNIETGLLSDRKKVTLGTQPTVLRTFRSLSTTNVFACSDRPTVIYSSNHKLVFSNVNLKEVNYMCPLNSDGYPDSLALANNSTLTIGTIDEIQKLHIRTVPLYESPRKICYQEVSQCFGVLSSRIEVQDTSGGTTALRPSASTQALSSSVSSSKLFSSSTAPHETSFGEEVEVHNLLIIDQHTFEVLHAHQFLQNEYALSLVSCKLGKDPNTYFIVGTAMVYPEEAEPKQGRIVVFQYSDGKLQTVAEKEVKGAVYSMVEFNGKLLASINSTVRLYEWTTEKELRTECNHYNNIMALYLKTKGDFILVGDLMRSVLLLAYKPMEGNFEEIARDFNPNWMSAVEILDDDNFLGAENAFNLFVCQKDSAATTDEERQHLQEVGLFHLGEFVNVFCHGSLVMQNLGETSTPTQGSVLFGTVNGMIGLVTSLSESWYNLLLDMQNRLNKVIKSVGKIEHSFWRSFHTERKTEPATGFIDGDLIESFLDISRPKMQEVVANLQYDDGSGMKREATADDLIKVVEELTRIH
Test: Immunofluorescence assay for GSPT1 degradation in CAL-51 cells
Assay type: cell-based
Set-up: CAL-51 cells were purchased from DSMZ (cat. Number ACC302); endogenous in cells; host or cells: CAL-51 (DSMZ ACC302)
Conditions: GSPT1 degradation, compound treatment 6 hours, read-out: DC50
In short: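 CAL-51 cells on fibronectin-coated plates treated 6 h with compound (30 μM to 0.1 nM); fixed, stained with anti-GSPT1/Alexa-488, phalloidin and DAPI, imaged by high-content microscopy. Mean GSPT1 intensity per cell normalized to controls; DC50 by non-linear regression.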

Work on `Cc1ccc(NC(=O)NCc2ccc3c(c2)C(=O)N(C2CCC(=O)NC2=O)C3)cc1C` (stereo not drawn) [Compound 68] yielded a DC50 of 200 nM.

Same assay, conditions: compound treatment 6 hours, read-out: Code: activity for GSPT1 degradation (DC50)

Compared with `N#Cc1ccc(NC(=O)NCc2ccc3c(c2)C(=O)N(C2CCC(=O)NC2=O)C3)cc1` (stereo not drawn) [Compound 74], `Cc1ccc(NC(=O)NCc2ccc3c(c2)C(=O)N(C2CCC(=O)NC2=O)C3)cc1C` (stereo not drawn) [Compound 68] is lower in DC50: greater than 300 nM for the first, 100 to 300 nM for the second.

`Cc1ccc(F)c(NC(=O)NCc2ccc3c(c2)C(=O)N(C2CCC(=O)NC2=O)C3)c1` (stereo not drawn) [Compound 67] and `O=C1CCC(N2Cc3ccc(CNC(=O)Nc4ccc(Cl)cc4Cl)cc3C2=O)C(=O)N1` (stereo not drawn) [Compound 45] cannot be ordered by DC50: greater than 300 nM for the first, greater than 300 nM for the second.

`COc1ccccc1NC(=O)NCc1ccc2c(c1)C(=O)N(C1CCC(=O)NC1=O)C2` (stereo not drawn) [Compound 7] and `Cc1c(Cl)cccc1NC(=O)NCc1ccc2c(c1)C(=O)N(C1CCC(=O)NC1=O)C2` (stereo not drawn) [Compound 19] cannot be ordered by DC50: greater than 300 nM for the first, greater than 300 nM for the second.

`CC(C)(C)NC(=O)NCc1ccc2c(c1)C(=O)N(C1CCC(=O)NC1=O)C2` (stereo not drawn) [Compound 10] and `Cc1cccc(C)c1NC(=O)NCc1ccc2c(c1)C(=O)N(C1CCC(=O)NC1=O)C2` (stereo not drawn) [Compound 25] cannot be ordered by DC50: greater than 300 nM for the first, greater than 300 nM for the second.

With `COc1ccc(NC(=O)NCc2ccc3c(c2)C(=O)N(C2CCC(=O)NC2=O)C3)cc1Cl` (stereo not drawn) [Compound 59] the DC50 was 100 to 300 nM.

Tested on: Human mammary epithelial cells (HMEC) engineered to express c-myc tagged with EGFP
Test: 3D spheroid assay, myc-HMEC (CellTiterGlo3D viability)
Assay type: cell-based
Conditions: Homo sapiens, HMEC, 120 h, 3D spheroids, 5 days with compound, read-out: Code: EC50 value in the myc-HMEC assay
Experimental: as §1, §2

First: N#Cc1ccc(NC(=O)NCc2ccc3c(c2)C(=O)N(C2CCC(=O)NC2=O)C3)cc1 (stereo not drawn) [Compound 74]
Second: Cc1ccc(NC(=O)NCc2ccc3c(c2)C(=O)N(C2CCC(=O)NC2=O)C3)cc1C (stereo not drawn) [Compound 68]
The EC50 of the first is higher: greater than 2000 nM for the first, 400 to 2000 nM for the second. The second is the more potent here.

`Cc1ccc(F)c(NC(=O)NCc2ccc3c(c2)C(=O)N(C2CCC(=O)NC2=O)C3)c1` (stereo not drawn) [Compound 67] and `O=C1CCC(N2Cc3ccc(CNC(=O)Nc4ccc(Cl)cc4Cl)cc3C2=O)C(=O)N1` (stereo not drawn) [Compound 45] cannot be ordered by EC50: greater than 2000 nM for the first, greater than 2000 nM for the second.

`COc1ccccc1NC(=O)NCc1ccc2c(c1)C(=O)N(C1CCC(=O)NC1=O)C2` (stereo not drawn) [Compound 7] and `Cc1c(Cl)cccc1NC(=O)NCc1ccc2c(c1)C(=O)N(C1CCC(=O)NC1=O)C2` (stereo not drawn) [Compound 19] cannot be ordered by EC50: greater than 2000 nM for the first, greater than 2000 nM for the second.

`CC(C)(C)NC(=O)NCc1ccc2c(c1)C(=O)N(C1CCC(=O)NC1=O)C2` (stereo not drawn) [Compound 10] and `Cc1cccc(C)c1NC(=O)NCc1ccc2c(c1)C(=O)N(C1CCC(=O)NC1=O)C2` (stereo not drawn) [Compound 25] cannot be ordered by EC50: greater than 2000 nM for the first, greater than 2000 nM for the second.

`COc1ccc(NC(=O)NCc2ccc3c(c2)C(=O)N(C2CCC(=O)NC2=O)C3)cc1Cl` (stereo not drawn) [Compound 59] gave an EC50 of 400 to 2000 nM.

Same assay, conditions: myc-HMEC 3D spheroids (compounds with code D and E), 5 days, read-out: EC50

Point of comparison: `Cc1ccc(NC(=O)NCc2ccc3c(c2)C(=O)N(C2CCC(=O)NC2=O)C3)cc1C` (stereo not drawn) [Compound 68], EC50 458 nM. Against it:
- COc1ccc(NC(=O)NCc2ccc3c(c2)C(=O)N(C2CCC(=O)NC2=O)C3)cc1Cl (stereo not drawn) [Compound 59] — within 1.5-fold, 589 nM
